The record followed here is publication PMC4178217, “Quinoline 3-sulfonamides inhibit lactate dehydrogenase A and reverse aerobic glycolysis in cancer cells” (Cancer & Metabolism, 2013).

Assay [1] concerns the target T1, recombinant human LDHA (Homo sapiens, UniProt P00338). Briefly: LDHA enzymatic assay with increasing levels of NADH. The assay is classed as biochemical. The settings on record: NADH 120 μM; read-out: LDHA IC50 at high NADH. The procedure: LDHA enzymatic assay with increasing levels of NADH The following reaction was assembled in clear-bottom 96 well plate: 50 mM phosphate buffer pH 7.0, 50 mM NaCl, 0.25 mM CHAPS, 200 µM NaPyruvate, 250 pM recombinant human LDHA, and the indicated amounts of NADH and Compound 2. Absorbance change due to NADH conversion to NAD^+ was read on SpectraMax M2 (Molecular Devices, Sunnyvale, CA) at 340 nm every 40 sec for 6 min.

Assay [2] deals with Glycogen synthase kinase 3b (Homo sapiens, UniProt P49841). Briefly: Glycogen synthase kinase 3b ANT. The assay is classed as biochemical. The settings on record: antagonist; read-out: pIC50 Glycogen synthase kinase 3b ANT (converted). From the text: ANT = antagonist (pIC50), AG = agonist (pEC50). pIC50 and pEC50 are the negative logarithms10 of IC50 and EC50, respectively. Click here for file
Chain of Glycogen synthase kinase 3b (P49841 whole entry): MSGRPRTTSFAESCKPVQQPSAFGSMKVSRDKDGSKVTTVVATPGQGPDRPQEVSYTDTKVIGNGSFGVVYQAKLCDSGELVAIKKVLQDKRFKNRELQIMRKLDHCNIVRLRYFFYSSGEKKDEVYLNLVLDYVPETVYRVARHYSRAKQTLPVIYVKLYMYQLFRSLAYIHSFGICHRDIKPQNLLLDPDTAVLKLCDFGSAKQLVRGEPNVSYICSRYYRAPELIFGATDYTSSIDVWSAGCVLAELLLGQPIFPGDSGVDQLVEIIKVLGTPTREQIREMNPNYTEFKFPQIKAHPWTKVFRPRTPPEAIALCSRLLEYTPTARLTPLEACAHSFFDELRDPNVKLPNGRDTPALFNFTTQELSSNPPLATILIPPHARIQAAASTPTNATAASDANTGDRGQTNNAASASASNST

Assay [3] concerns the target T1, recombinant human LDHA. Briefly: recombinant human LDHA enzyme assay (lactate to pyruvate, NADH via diaphorase/resazurin). On the technique in general: Resazurin is reduced to fluorescent resorufin, in cell work by metabolically active cells.
Assay [4] relates to Snu398 cells. Briefly: Pyruvate kinase (PK) activity, Snu398. In kind it is cell-based. Conditions: Homo sapiens, SNU-398; Snu398, 6 h. The procedure:
(§1) One and a half million cells per well were plated in 6-well tissue culture plates in R10 medium and allowed to attach overnight. The following morning, cells were washed and medium replaced with 2 mL/well of low-glucose medium. DMSO control or the indicated doses of LDHA inhibitor dissolved in DMSO were added to the wells and cells were incubated at 37°C for 6 h. Following the incubation, cells were washed, scraped into 200 μl of distilled de-ionized water and homogenized on ice using OMNI THq homogenizer (Omni International, Kennesaw, GA, USA). Homogenates were cleared by centrifugation and protein concentration measured by bicinchoninic acid (BCA) assay (Thermo Fisher Scientific, Waltham, MA, USA). PK activity was determined using PK Activity kit (BioVision Research Products) per manufacturer’s instructions and normalized to protein concentration. For detection of PKM2 oligomerization, the same protein samples were separated by non-denaturing gel electrophoresis using the NativePAGE™ gel system (Life Technologies), transferred onto polyvinylidene difluoride (PVDF) membranes and subjected to western immunoblotting with anti-PKM2 antibody.

Assay [5] concerns cancer cell lines. Briefly: Lactate production assay, panel of cancer cell lines. Conditions: Homo sapiens, read-out: lactate production EC50 across cell lines.
Assay [6] deals with PKM2 in Snu398 cells. Briefly: PKM2 tetramerization (native gel, western immunoblotting). In kind it is cell-based, human. Conditions: Snu398, 6 h. The procedure: as §1
In general terms: In western blotting, separated proteins are transferred to a membrane and probed.

Assay [7] has as its system Snu398 cells. Briefly: 13C NMR spectroscopy of glucose consumption and lactate production, Snu398. In kind it is cell-based, human. As for the experimental part:
After this pre-incubation, cells were washed in PBS and resuspended in 400 μL of glucose-free RPMI supplemented with 10% deuterium oxide, 11 mM D-(1,6-^13C2)glucose, and LDHA inhibitor or DMSO. An additional 600 μL of the same medium was gently added to top off the resuspended cells. Five mm NMR tubes with reduced sample depth (Shigemi Inc, Allison Park, PA, USA) were used to ensure that the cells remain inside the active volume of the receiver coil of the probe. […] . Prior to Fourier transformation, sensitivity and resolution were enhanced by applying an exponential line-broadening of 1 Hz over the first 32,000 data points and then zero filled to 256,000 data points. Spectra were analyzed using in-house data analysis software.

For assay [8], the system named is MDA-MB-453 cells. Briefly: ECAR after rotenone/antimycin, MDA-MB-453 (Seahorse XF96). The settings on record: Homo sapiens; MDA-MB-453, after rotenone/antimycin. The assay is classed as cell-based. The procedure: For XF96 experiments breast cancer cells were seeded in DMEM without bicarbonate at 16,000/well in XF96 V3 PET plates (Seahorse Biosciences) coated with CellTak (BD Biosciences, San Jose, CA, USA). […] HepG2 cells were seeded at 16K/well in XF96 V3 PET plates and left overnight for attachment. The medium was exchanged with DMEM without bicarbonate prior to readings on the XF96 Analyzer (Seahorse Biosciences).

The test system of assay [9] is HCC1937 cells. Briefly: ECAR after mitochondrial inhibition, breast cancer lines and HCC1937 isogenic shRNA lines. In kind it is cell-based, human. As for the experimental part:
A2780 were obtained from the European Collection of Cell Cultures (ECACC, Porton Down, UK), IGROV-1 and U251 were from the National Cancer Institute (NCI, Bethesda, MD, USA), and all other cell lines were from American Type Culture Collection (ATCC, Manassas, VA, USA). The cell lines were authenticated as previously described. All cell lines were maintained in a 37°C 5% CO2-95% humidified air incubator. Breast cancer cell lines were cultured in DMEM (Life Technologies, Carlsbad, CA, USA) supplemented with 5% FBS (Sigma-Aldrich, St. Louis, MO, USA). All other cell lines were maintained in R10 medium (Roswell Park Memorial Institute medium (RPMI)-1640 (Life Technologies) supplemented with 10% FBS). MCF10A cells were supplemented with additional cholera toxin (100 ng/mL), hydrocortisone ([…]), insulin (10 μg/mL), and epidermal growth factor (EGF) (20 ng/mL). […]
For XF96 experiments breast cancer cells were seeded in DMEM without bicarbonate at 16,000/well in XF96 V3 PET plates (Seahorse Biosciences) coated with CellTak (BD Biosciences, San Jose, CA, USA). […] The medium was exchanged with DMEM without bicarbonate prior to readings on the XF96 Analyzer (Seahorse Biosciences).

The test system of assay [10] is MDA-MB-453 cells. Briefly: Lactate production in normoxia/hypoxia, MDA-MB-453 (YSI analyzer). Conditions: Homo sapiens, MDA-MB-453, 2 h, read-out: lactate production EC50 in hypoxia.
The test system of assay [11] is Snu398 cells. Briefly: Cell proliferation and survival, Snu398 (trypan blue, Vi-Cell). The assay is classed as cell-based, human. As for the experimental part: Sixty thousand Snu398 cells per well were plated in 6-well tissue culture plates in RPMI-1640 medium supplemented with 2.5% charcoal-stripped FBS (Life Technologies). Cells were allowed to attach overnight and then DMSO control or the indicated doses of LDHA inhibitor dissolved in DMSO were added directly to the wells. After 4 to 8 days of incubation in the indicated oxygen conditions, adherent cells were trypsinized, counted, and had their viability assessed by the trypan-blue exclusion method using the Vi-Cell XR Cell Viability Analyzer (Beckman Coulter, Brea, CA, USA). The same procedure was carried out for HepG2 cells, except non-charcoal-stripped FBS was used. For PARP cleavage analysis, both floating and adherent cells were collected after 24 h and the whole-cell extracts were prepared in radioimmunoprecipitation assay (RIPA) buffer (Sigma-Aldrich) supplemented with protease and phosphatase inhibitor cocktails (Sigma-Aldrich). Solubilized proteins were separated by SDS-PAGE, transferred onto nitrocellulose membrane, and detected with each specific antibody.

Bounds are passed on as bounds.

In the case of `COc1ncc(-c2ccc3c(Nc4cc(C(=O)O)cc(C5CCCC5)c4)c(S(=O)(=O)NC4CC4)cnc3c2)c(OC)n1` [Compound 2], the values for the IC50 in [1], in assay [2] and in assay [3] were 67 nM, 31600 nM and 16 ± 7 nM, respectively.

For the compound `COc1ncc(-c2ccc3c(Nc4cc(Oc5cc(F)cc(F)c5)cc(C(=O)O)c4)c(S(=O)(=O)NC4CC4)cnc3c2)c(OC)n1` [Compound 1], the EC50 in assay [4] was 600 nM; in assay [5], at least 400 nM; in [8], 10000 nM; in assay [10], 10000 nM; in assay [11] (Homo sapiens, SNU-398, Snu398, 4 to 8 days, read-out: viable cell number EC50) it was 2900 ± 600 nM. The PKM2 tetramerization result in assay [6] was “dose dependently promoted formation of the active tetrameric form of PKM2”. In addition, in assay [7] (Snu398, 10 μM), the “(3-13C)lactate production” value is “significantly slowed down lactate production”. Besides, in [7] (Snu398 versus HepG2, 10 μM), the “D-(1,6-13C2)glucose consumption” value is reported as “only affected glucose consumption in Snu398 cells”. In assay [9] (HCC1937 stable LDHA shRNA), the “sensitivity (ECAR) with LDHA knockdown” value is “did not change their sensitivity”. In addition, in assay [9] (HCC1937 stable LDHB shRNA), the “sensitivity (ECAR) with LDHB knockdown” value is reported as “more sensitive”. In addition, the “dose sufficient to induce cell death” value in assay [11] (Snu398, with FK866) was 3 µM.

As a reminder, the EC50 is the concentration giving half of the maximal effect.
